Source: patent publication US6958331B1, “Bradykinin receptor antagonists” (Novartis AG, priority 1999, dated 2005)

Target: T1, human bradykinin B1 receptor (Homo sapiens, UniProt P46663)
T1 construct: expressed in transfected cells; membranes
T1 sequence (P46663 1-353): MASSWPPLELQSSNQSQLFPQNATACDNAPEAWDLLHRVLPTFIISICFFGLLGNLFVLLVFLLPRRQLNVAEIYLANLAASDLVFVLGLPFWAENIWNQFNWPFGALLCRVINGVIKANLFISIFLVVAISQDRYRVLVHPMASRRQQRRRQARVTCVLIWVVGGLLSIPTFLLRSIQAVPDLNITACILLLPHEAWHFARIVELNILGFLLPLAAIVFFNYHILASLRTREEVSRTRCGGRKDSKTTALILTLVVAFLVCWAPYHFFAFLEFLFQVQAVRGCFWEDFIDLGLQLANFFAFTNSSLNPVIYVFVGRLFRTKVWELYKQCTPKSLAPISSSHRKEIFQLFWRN
Test: Test I: Bradykinin Receptor Binding Assay ([3H]desArg10-kallidin displacement, HEK 293 membranes)
Conditions: statement in words
Procedure: This cDNA is sequenced and subcloned into pcDNA3 (Clontech) and used to generate a cell-line which expresses the human bradykinin B1 receptor.
Cells are grown in Mininum Essential Medium with Eade's Salts (GIBCO) supplemented with 2 mM L-glutamine, 100 units/ml penicillin, 100 μg/ml streptomycin, 1% nonessential amino acids and 10% myodone foetal calf serum (GIBCO) in a humidified atmosphere with 5% CO2 at 37° C.
One 175 cm^2 flask with approximately 50% confluent cells is transfected with approximately 30 μg/ml HB1-pcDNA3 DNA using the calcium phosphate precipitate method of transfection. The flask of transfected cells is split 1:3 on day 2 post transfecdon to prevent overgrowth. The following day the cells are split 1:5 and selection in 700 μg/ml G418 begins. The selective medium is changed every 3-4 days. When distinct G418 resistant colonies of transfected cells are seen, approximately 4 weeks after transfection, the cells are cloned by limiting dilution and assayed for binding of [^3H]desArg^10-kallidin. […]
Specific binding to the bradykinin B1 receptor is defined as the difference between that found in total bound tubes and that found in non-specific binding tubes. […] Mimoscintillant-40 Liquid scintillant is added to the filters and radioactivity bound is determined in a Canberra Packard Topcount scintillation counter. […]

Structure (SMILES): CC(C)N1CCN(C(=O)C2CCN(S(=O)(=O)c3ccc(NCC(c4ccccc4)c4ccccc4)c(C(=O)N4CCOCC4)c3)CC2)CC1 [Example 1, {2-(2,2-diphenyl-ethylamino)-5-[4-(4-Isopropyl-piperazine-1-carbonyl)-piperidine-1-sulfonyl]-pheny}-morpholin-4-yl-methanone]
- active at the human B1 bradykinin receptor: active
